The test deals with T1, human mAChR M4 (Homo sapiens, UniProt P08173).
T1 construct: expressed in transfected cells; host or cells: CHO-K1 (ATCC), stably co-expressing the chimeric G protein Gqi5
T1 sequence (P08173 1-479): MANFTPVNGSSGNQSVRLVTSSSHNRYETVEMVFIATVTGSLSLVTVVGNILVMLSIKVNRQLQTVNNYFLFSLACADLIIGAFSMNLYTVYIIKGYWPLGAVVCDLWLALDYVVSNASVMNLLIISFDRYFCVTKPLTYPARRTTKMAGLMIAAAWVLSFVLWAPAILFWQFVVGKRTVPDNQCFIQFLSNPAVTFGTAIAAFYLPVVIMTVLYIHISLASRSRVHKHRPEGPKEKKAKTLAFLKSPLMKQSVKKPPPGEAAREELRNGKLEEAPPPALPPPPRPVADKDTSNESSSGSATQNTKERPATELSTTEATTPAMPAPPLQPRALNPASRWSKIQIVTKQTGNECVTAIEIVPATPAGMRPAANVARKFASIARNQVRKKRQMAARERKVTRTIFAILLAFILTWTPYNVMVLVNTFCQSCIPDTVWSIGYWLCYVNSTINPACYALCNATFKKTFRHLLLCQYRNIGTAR
Kind of test: mAChR M4 cell-based functional assay (calcium flux, decrease of EC80 acetylcholine response). As to conditions: for remaining activity at 30 µM: % ACh maximum at 30 μM, human M4, read-out: Emin; for pIC50: M4/Gqi5/CHO-K1 cells, decrease of response to EC80 acetylcholine. The procedure:
Human or rat M4 cDNA, along with the chimeric G protein Gqi5, were transfected into Chinese hamster ovary (CHO-K1) cells purchased from the American Type Culture Collection using Lipofectamine2000. M4/Gqi5/CHO cells were grown in Ham's F-12 medium containing 10% heat-inactivated fetal bovine serum (FBS), 20 mM HEPES, 500 μg/mL G418 sulfate, and 200 μg/mL Hygromycin B.
For high throughput measurement of agonist-evoked increases in intracellular calcium, CHO-K1 cells stably expressing muscarinic receptors were plated in growth medium lacking G418 and hygromycin at 15,000 cells/20 μL/well in Greiner 384-well black-walled, tissue culture (TC)-treated, clear-bottom plates (VWR). Cells were incubated overnight at 37° C. and 5% CO2. The next day, cells were washed using an ELX 405 (BioTek) with assay buffer: the final volume was then aspirated to 20 μL. Next, 20 μL of a 2.3 μM stock of Fluo-4/acetoxymethyl ester (Invitrogen, Carlsbad, Calif.), prepared as a 2.3 mM stock in DMSO and mixed in a 1:1 ratio with 10% (w/v) Pluronic F-127 and diluted in assay buffer, was added to the wells and the cell plates were incubated for 50 min at 37° C. and 5% CO2. Dye was removed by washing with the ELX 405 and the final volume was aspirated to 20 μL. Compound master plates were formatted in a 10 point concentration-response curve (CRC) format (1:3 dilutions) in 100% DMSO with a starting concentration of 10 or 1 mM using a BRAVO liquid handler (Agilent). Test compound CRCs were then transferred to daughter plates (240 nL) using the Echo acoustic plate reformatter (Labcyte, Sunnyvale, Calif.) and then diluted into assay buffer (40 μL) to a 2× stock using a Thermo Fisher Combi (Thermo Fisher Scientific, Waltham, Mass.).
Calcium flux was measured using the Functional Drug Screening System (FDSS) 6000 or 7000 (Hamamatsu Corporation, Tokyo, Japan) as an increase in the fluorescent static ratio. Compounds were applied to cells (20 μL, 2×) using the automated system of the FDSS at 2 seconds into the protocol and the data were collected at 1 Hz. At 143 s, 10 μL of an EC20 concentration of the muscarinic receptor agonist acetylcholine was added (5×), followed by the addition of 12 μL of an EC80 concentration of acetylcholine at the 268 s time point (5×). Agonist activity was analyzed as a concentration-dependent increase in calcium mobilization upon compound addition. Positive allosteric modulator activity was analyzed as a concentration-dependent increase in the EC20 acetylcholine response. Antagonist activity was analyzed as a concentration-dependent decrease in the EC80 acetylcholine response; for the purposes of the tables herein, an IC50 (inhibitory concentration 50) was calculated as a concentration-dependent decrease of the response elicited by an EC80 concentration of acetylcholine. Concentration-response curves were generated using a four-parameter logistical equation in XLFit curve fitting software (IDBS, Bridgewater, N.J.) for Excel (Microsoft, Redmond, Wash.) or Prism (GraphPad Software, Inc., San Diego, Calif.) or the Dotmatics software platform (Dotmatics, Bishop's Stortford, UK).
Compounds were synthesized as described above. Activity (IC50 and Emin) was determined in the mAChR M4 cell-based functional assay as described above and the data are shown in Table 4. The compound numbers correspond to those used in Examples 1-4 and Tables 1-3.
(In general: Calcium assays in cells follow changes in intracellular calcium, usually with a dye or a luminescent sensor.)

pIC50: −log10 of the molar value.

The term pIC50 denotes the IC50 on a negative log10 scale, so that one unit is a factor of ten. On to `CC(=O)Nc1ccc(-c2ccc(NC3CC4(C3)CN(CCC(C)(C)C)C4)nn2)cc1` [Compound 1, N-(4-(6-((2-(3,3-Dimethylbutyl)-2-azaspiro[3.3]heptan-6-yl)amino)pyridazin-3-yl)phenyl)acetamide], for which the remaining activity at 30 µM turned out to be 9.8% and the pIC50 is 5.88.

Turning to `Cc1nn(C)cc1-c1ccc(NC2CC3(C2)CN(CC2CCOCC2)C3)nn1` [Compound 2, N-(6-(1,3-dimethyl-1H-1-pyrazol-4-yl)pyridazin-3-yl)-2-((tetrahydro-2H-pyran-4-yl)methyl)-2-azaspiro[3.3]heptan-6-amine], the remaining activity at 30 µM came to 46.5% and the pIC50 is 5.00.

Take `Fc1ccc(Cl)c(-c2ccc(NC3CC4(C3)CN(CC3CC5C=CC3C5)C4)nn2)c1` (stereo not shown) [Compound 3, 2-(bicyclo[2.2.1]hept-5-en-2-ylmethyl)-N-(6-(2-chloro-5-fluorophenyl)pyridazin-3-yl)-2-azaspiro[3.3]heptan-6-amine]: the remaining activity at 30 µM was determined as 4% and the pIC50 was 7.00.

On to `CC(C)(C)CCN1CC2(CC(Nc3ccc(-c4cc(F)ccc4Cl)nn3)C2)C1` [Compound 4, N-(6-(2-chloro-5-fluorophenyl)pyridazin-3-yl)-2-(3,3-dimethylbutyl)-2-azaspiro[3.3]heptan-6-amine], for which the remaining activity at 30 µM was found to be 2.8% and the pIC50 was 6.80.

Turning to `Fc1ccc(Cl)c(-c2ccc(NC3CC4(C3)CN(CC3CCCCC3)C4)nn2)c1` [Compound 5, N-(6-(2-chloro-5-fluorophenyl)pyridazin-3-yl)-2-(cyclohexylmethyl)-2-azaspiro[3.3]heptan-6-amine], the remaining activity at 30 µM came out at 3.1% and the pIC50 was 6.68.

As to `Fc1ccc(Cl)c(-c2ccc(NC3CC4(C3)CN(CC3CCCOC3)C4)nn2)c1` (stereo not shown) [Compound 6, N-(6-(2-chloro-5-fluorophenyl)pyridazin-3-yl)-2-((tetrahydro-2H-pyran-3-yl)methyl)-2-azaspiro[3.3]heptan-6-amine], the remaining activity at 30 µM was 5.4% and the pIC50 was 5.61.

As to `Fc1ccc(Cl)c(-c2ccc(NC3CC4(C3)CN(CC3CCOCC3)C4)nn2)c1` [Compound 7, N-(6-(2-chloro-5-fluorophenyl)pyridazin-3-yl)-2-((tetrahydro-2H-pyran-4-yl)methyl)-2-azaspiro[3,3]heptan-6-amine], the remaining activity at 30 µM is 7.8% and the pIC50 was 5.64.

For the compound `Fc1ccc(Cl)c(-c2ccc(NC3CC4(C3)CN(CC35CC6CC(CC(C6)C3)C5)C4)nn2)c1` [Compound 8, 2-(adamantan-1-ylmethyl)-N-(6-(2-chloro-5-fluorophenyl)pyridazin-3-yl)-2-azaspiro[3.3]heptan-6-amine], the remaining activity at 30 µM came to 3.8% and the negative-log IC50 (pIC50) is 6.82.

For `Cc1nn(C)cc1-c1ccc(NC2CC3(C2)CN(CCC(C)(C)C)C3)nn1` [Compound 9, N-(6-(1,3-dimethyl-1H-pyrazol-4-yl)pyridazin-3-yl)-2-(3,3-dimethylbutyl)-2-azaspiro[3.3]heptan-6-amine], the remaining activity at 30 µM is 12.4% and the pIC50 is 5.54.

On to `Cc1cnn(C)c1-c1ccc(NCC2CC3(C2)CN(CCC(C)(C)C)C3)nn1` [Compound 11, 6-(1,4-Dimethyl-1H-pyrazol-5-yl)-N-((2-(3,3-dimethylbutyl)-2-azaspiro[3.3]heptan-6-yl)methyl)pyridazin-3-amine], for which the remaining activity at 30 µM came out at 6.5% and the pIC50 is 5.87.

`Cc1nn(C)cc1-c1ccc(NCC2CC3(C2)CN(CC2CC4C=CC2C4)C3)nn1` (stereo not shown) [Compound 12, N-((2-(bicyclo[2.2.1]hept-5-en-2-ylmethyl)-2-azaspiro[3.3]heptan-6-yl)methyl)-6-(1,3-dimethyl-1H-pyrazol-4-yl)pyridazin-3-amine]: the remaining activity at 30 µM worked out at 3.6% and the negative-log IC50 (pIC50) is 6.15.

`Cc1nn(C)cc1-c1ccc(NCC2CC3(C2)CN(CC(C)C(C)(C)C)C3)nn1` (stereo not shown) [Compound 13, 6-(1,3-dimethyl-1H-pyrazol-4-yl)-N-((2-(2,3,3-trimethylbutyl)-2-azaspiro[3.3]heptan-6-yl)methyl)pyridazin-3-amine]: the remaining activity at 30 µM came to 6.1% and the pIC50 was 5.82.

Turning to `Fc1ccc(Cl)c(-c2ccc(NCC3CC4(C3)CN(CC3CC5C=CC3C5)C4)nn2)c1` (stereo not shown) [Compound 14, N-((2-(bicyclo[2.2.1]hept-5-en-2-ylmethyl)-2-azaspiro[3.3]heptan-6-yl)methyl)-6-(2-chloro-5-fluorophenyl)pyridazin-3-amine], the remaining activity at 30 µM is 2.6% and the pIC50 was 7.23.

In the case of `Cc1nn(C)cc1-c1ccc(NCC2CC3(C2)CN(CCC(C)(C)C)C3)nn1` [Compound 15, 6-(1,3-dimethyl-1H-pyrazol-4-yl)-N-((2-(3,3-dimethylbutyl)-2-azaspiro[3.3]heptan-6-yl)methyl)pyridazin-3-amine], the remaining activity at 30 µM is 7.5% and the pIC50 is 5.83.

For the compound `Cc1nn(C)cc1-c1ccc(NCC2CC3(C2)CN(CC2CCCCC2)C3)nn1` [Compound 16, N-((2-(cyclohexylmethyl)-2-azaspiro[3.3]heptan-6-yl)methyl)-6-(1,3-dimethyl-1H-pyrazol-4-yl)pyridazin-3-amine], the remaining activity at 30 µM worked out at 13.5% and the pIC50 was 5.38.

Consider `CC(=O)Nc1ccc(-c2ccc(NCC3CC4(C3)CN(CCC(C)(C)C)C4)nn2)cc1` [Compound 17, N-(4-(6-(((2-(3,3-dimethylbutyl)-2-azaspiro[3.3]heptan-6-yl)methyl)amino)pyridazin-3-yl)phenyl)acetamide], for which the remaining activity at 30 µM worked out at 7.8% and the pIC50 is 5.66.

Regarding `CC(=O)Nc1ccc(-c2ccc(NCC3CC4(C3)CN(CC3CC5C=CC3C5)C4)nn2)cc1` (stereo not shown) [Compound 18, N-(4-(6-(((2-(bicyclo[2.2.1]hept-5-en-2-ylmethyl)-2-azaspiro[3.3]heptan-6-yl)methyl)amino)pyridazin-3-yl)phenyl)acetamide], the remaining activity at 30 µM turned out to be 8.1% and the pIC50 was 5.81.

Turning to `CC(=O)Nc1ccc(-c2ccc(NCC3CC4(C3)CN(CC3CCCCC3)C4)nn2)cc1` [Compound 19, N-(4-(6-(((2-(cyclohexylmethyl)-2-azaspiro[3.3]heptan-6-yl)methyl)amino)pyridazin-3-yl)phenyl)acetamide], the remaining activity at 30 µM turned out to be 20.5% and the pIC50 was 5.09.

On to `CC(C)(C)CCN1CC2(C1)CC1(CC1CNc1ccc(Cl)nn1)C2` (stereo not shown) [Compound 20, 6-Chloro-N-((7-(3,3-dimethylbutyl)-7-azadispiro[2.1.3^5.1^3]nonan-1-yl)methyl)pyridazin-3-amine], for which the remaining activity at 30 µM worked out at 4.9% and the pIC50 was 6.35.

Take `Cc1nn(C)cc1-c1ccc(OCC2CC3(C2)CN(CC2CCCCC2)C3)nn1` [Compound 21, 2-(Cyclohexylmethyl)-6-(((6-(1,3-dimethyl-1H-pyrazol-4-yl)pyridazin-3-yl)oxy)methyl)-2-azaspiro[3.3]heptane]: the remaining activity at 30 µM came to 8.6% and the pIC50 is 5.63.

The values above are taken from US11325896B2, “Antagonists of the muscarinic acetylcholine receptor M4” (Vanderbilt University, priority 2017, dated 2022).
